Data: paper PMC5218480 (PLoS ONE, 2017)

Test system: MV-4-11 cells
Test: Gene expression microarray analysis (Affymetrix PrimeView) and GSEA
Format: cell-based, human
Set-up: RFU PODN (11730768_x_at) / Fold change /veh PODN (11730768_x_at) / RFU LINC00158 (11744669_a_at) / Fold change /veh LINC00158 (11744669_a_at) / RFU DUSP10 (11751237_a_at) / Fold change /veh DUSP10 (11751237_a_at) / RFU ID3 (11757404_x_at) / Fold change /veh ID3 (11757404_x_at) / RFU PLEKHG5 (11737974_s_at) / Fold change /veh PLEKHG5 (11737974_s_at) / RFU LRRC4B (11730491_at) / Fold change /veh LRRC4B (11730491_at) / RFU GIMAP4 (11747438_a_at) / Fold change /veh GIMAP4 (11747438_a_at) / RFU KRT8 (11758183_x_at) / Fold change /veh KRT8 (11758183_x_at) / RFU CNN1 (11734310_a_at) / Fold change /veh CNN1 (11734310_a_at) / RFU VPS37D (11726825_at) / Fold change /veh VPS37D (11726825_at) / RFU C10orf10 (11716522_x_at) / Fold change /veh C10orf10 (11716522_x_at) / RFU KIR2DL2 /// KIR2DL4 /// KIR2DL5A /// KIR2DL5B /// KIR2DS1 /// KIR2DS2 /// KIR2DS3 /// KIR2DS4 /// KIR3DL3 /// KIR3DL3 /// KIR3DS1 (11738374_at) / Fold change /veh KIR2DL2 /// KIR2DL4 /// KIR2DL5A /// KIR2DL5B /// KIR2DS1 /// KIR2DS2 /// KIR2DS3 /// KIR2DS4 /// KIR3DL3 /// KIR3DL3 /// KIR3DS1 (11738374_at) / RFU C1QL1 (11718748_at) / Fold change /veh C1QL1 (11718748_at) / RFU TMPRSS4 (11747572_a_at) / Fold change /veh TMPRSS4 (11747572_a_at) / RFU HAMP (11756126_x_at) / Fold change /veh HAMP (11756126_x_at) / RFU RNFT2 (11725882_a_at) / Fold change /veh RNFT2 (11725882_a_at) / RFU NR4A2 (11747474_a_at) / Fold change /veh NR4A2 (11747474_a_at) / RFU ABCC12 (11746883_a_at) / Fold change /veh ABCC12 (11746883_a_at) / RFU TMEM136 (11760407_x_at) / Fold change /veh TMEM136 (11760407_x_at) / RFU CLDN22 /// WWC2 (11732394_at) / Fold change /veh CLDN22 /// WWC2 (11732394_at) / RFU HLA-DPB1 (11760878_x_at) / Fold change /veh HLA-DPB1 (11760878_x_at) / RFU SPINT1 (11716480_a_at) / Fold change /veh SPINT1 (11716480_a_at) / RFU GAP43 (11754022_s_at) / Fold change /veh GAP43 (11754022_s_at) / RFU A4GNT (11735810_at) / Fold change /veh A4GNT (11735810_at) / RFU PRB3 (11715151_x_at) / Fold change /veh PRB3 (11715151_x_at) / RFU TUBB4B (11761932_at) / Fold change /veh TUBB4B (11761932_at) / RFU CAPN14 (11732068_a_at) / Fold change /veh CAPN14 (11732068_a_at) / RFU TMCC2 (11721928_a_at) / Fold change /veh TMCC2 (11721928_a_at) / RFU IRGQ (11745062_a_at) / Fold change /veh IRGQ (11745062_a_at) / RFU FAM174B (11720279_a_at) / Fold change /veh FAM174B (11720279_a_at) / RFU TMPRSS4 (11748680_a_at) / Fold change /veh TMPRSS4 (11748680_a_at) / RFU FAM212B (11763350_a_at) / Fold change /veh FAM212B (11763350_a_at) / RFU PLEKHG5 (11743358_a_at) / Fold change /veh PLEKHG5 (11743358_a_at) / RFU ZSCAN30 (11745921_a_at) / Fold change /veh ZSCAN30 (11745921_a_at) / RFU CMKLR1 (11741424_a_at) / Fold change /veh CMKLR1 (11741424_a_at) / RFU LOC101060620 /// MAPK8IP1 (11723275_at) / Fold change /veh LOC101060620 /// MAPK8IP1 (11723275_at) / RFU SPTSSB (11747773_x_at) / Fold change /veh SPTSSB (11747773_x_at) / RFU PRSS12 (11739890_at) / Fold change /veh PRSS12 (11739890_at) / RFU BIN1 (11741810_x_at) / Fold change /veh BIN1 (11741810_x_at) / RFU WNT11 (11732464_a_at) / Fold change /veh WNT11 (11732464_a_at) / RFU C10orf10 (11716521_a_at) / Fold change /veh C10orf10 (11716521_a_at) / RFU C5orf56 (11738089_at) / Fold change /veh C5orf56 (11738089_at) / RFU CYB561 (11721691_x_at) / Fold change /veh CYB561 (11721691_x_at) / RFU ANKRD19P (11752326_a_at) / Fold change /veh ANKRD19P (11752326_a_at) / RFU OR2T12 /// OR2T33 /// OR2T8 (11738714_s_at) / Fold change /veh OR2T12 /// OR2T33 /// OR2T8 (11738714_s_at) / RFU VCAN (11748164_a_at) / Fold change /veh VCAN (11748164_a_at) / RFU JSRP1 (11732532_at) / Fold change /veh JSRP1 (11732532_at) / RFU KRTAP10-11 (11738290_x_at) / Fold change /veh KRTAP10-11 (11738290_x_at) / RFU MYO3A (11730013_a_at) / Fold change /veh MYO3A (11730013_a_at) / RFU EBF3 (11725865_a_at) / Fold change /veh EBF3 (11725865_a_at) / RFU CAMK2N1 (11719241_x_at) / Fold change /veh CAMK2N1 (11719241_x_at) / RFU C5orf56 (11738088_a_at) / Fold change /veh C5orf56 (11738088_a_at) / RFU OLFML3 (11715873_a_at) / Fold change /veh OLFML3 (11715873_a_at) / RFU LOC100653217 /// NTM (11731650_a_at) / Fold change /veh LOC100653217 /// NTM (11731650_a_at) / RFU MAPK11 (11762145_a_at) / Fold change /veh MAPK11 (11762145_a_at) / RFU FIZ1 (11724087_x_at) / Fold change /veh FIZ1 (11724087_x_at) / RFU OASL (11726364_x_at) / Fold change /veh OASL (11726364_x_at) / RFU SOX15 (11748057_x_at) / Fold change /veh SOX15 (11748057_x_at) / RFU CD79A (11719716_a_at) / Fold change /veh CD79A (11719716_a_at) / RFU HIST1H1D (11736915_at) / Fold change /veh HIST1H1D (11736915_at) / RFU CASKIN2 (11723855_a_at) / Fold change /veh CASKIN2 (11723855_a_at) / RFU LOC730098 (11760151_x_at) / Fold change /veh LOC730098 (11760151_x_at) / RFU OR4N2 (11742367_at) / Fold change /veh OR4N2 (11742367_at) / RFU PRRT2 (11749266_a_at) / Fold change /veh PRRT2 (11749266_a_at) / RFU SNX32 (11753110_a_at) / Fold change /veh SNX32 (11753110_a_at) / RFU CDHR5 (11726645_a_at) / Fold change /veh CDHR5 (11726645_a_at) / RFU RCAN1 (11760418_a_at) / Fold change /veh RCAN1 (11760418_a_at) / RFU FAM167A (11723789_a_at) / Fold change /veh FAM167A (11723789_a_at) / RFU FAM26E (11764081_at) / Fold change /veh FAM26E (11764081_at) / RFU ISYNA1 (11749810_s_at) / Fold change /veh ISYNA1 (11749810_s_at) / RFU ACY1 (11761880_at) / Fold change /veh ACY1 (11761880_at) / RFU 11764098_at / Fold change /veh 11764098_at / RFU SAMD14 (11745864_x_at) / Fold change /veh SAMD14 (11745864_x_at) / RFU NPB (11741838_a_at) / Fold change /veh NPB (11741838_a_at) / RFU TMPRSS6 (11731388_a_at) / Fold change /veh TMPRSS6 (11731388_a_at) / RFU KRTAP10-2 (11738614_at) / Fold change /veh KRTAP10-2 (11738614_at) / RFU ARHGAP8 /// PRR5-ARHGAP8 (11727945_x_at) / Fold change /veh ARHGAP8 /// PRR5-ARHGAP8 (11727945_x_at) / RFU KRTAP5-7 /// NADSYN1 (11734609_at) / Fold change /veh KRTAP5-7 /// NADSYN1 (11734609_at) / RFU RASL12 (11751679_a_at) / Fold change /veh RASL12 (11751679_a_at) / RFU CDKN2B (11736163_a_at) / Fold change /veh CDKN2B (11736163_a_at) / RFU PRF1 (11729649_at) / Fold change /veh PRF1 (11729649_at) / RFU, ZNF638 /// ZNF638-IT1 / Fold change vs veh, ZNF638 /// ZNF638-IT1 / RFU, PANK3 / Fold change vs veh, PANK3 / RFU, SH3YL1 / Fold change vs veh, SH3YL1 / RFU, ZEB2 / Fold change vs veh, ZEB2 / RFU, NRIP1 / Fold change vs veh, NRIP1 / RFU, PTTG1IP / Fold change vs veh, PTTG1IP / RFU, CAPN2 / Fold change vs veh, CAPN2 / RFU, MED14 / Fold change vs veh, MED14 / RFU, SNORA58 / Fold change vs veh, SNORA58 / RFU, C1orf63 / Fold change vs veh, C1orf63 / RFU, LRRFIP1 / Fold change vs veh, LRRFIP1 / RFU, NDUFAF7 / Fold change vs veh, NDUFAF7 / RFU, SLC12A2 / Fold change vs veh, SLC12A2 / RFU, IBTK / Fold change vs veh, IBTK / RFU, ESF1 / Fold change vs veh, ESF1 / Fold change vs veh, TMEM50B / RFU, TAOK1 / Fold change vs veh, TAOK1 / RFU, ACBD3 / Fold change vs veh, ACBD3 / RFU, TMA16 / Fold change vs veh, TMA16 / RFU, RWDD3 / Fold change vs veh, RWDD3 / RFU, BCAT1 / Fold change vs veh, BCAT1 / RFU, EDEM3 / Fold change vs veh, EDEM3 / RFU, TMEM33 / Fold change vs veh, TMEM33 / RFU, WDR75 / Fold change vs veh, WDR75 / RFU, AHCTF1 / Fold change vs veh, AHCTF1 / RFU, TFRC / Fold change vs veh, TFRC / RFU, ZDHHC17 / Fold change vs veh, ZDHHC17 / RFU, NOM1 / Fold change vs veh, NOM1 / RFU, ARL8B / Fold change vs veh, ARL8B / RFU, ZBTB11 / Fold change vs veh, ZBTB11 / RFU, TAMM41 / Fold change vs veh, TAMM41 / RFU, KIAA1704 /// LOC100996395 / Fold change vs veh, KIAA1704 /// LOC100996395 / RFU, ING1 / Fold change vs veh, ING1 / RFU, TRMT61B / Fold change vs veh, TRMT61B / RFU, FUBP3 / Fold change vs veh, FUBP3 / RFU, TP53 / Fold change vs veh, TP53 / RFU, TNKS2 / Fold change vs veh, TNKS2 / RFU, ZFP14 / Fold change vs veh, ZFP14 / RFU, ACTR2 / Fold change vs veh, ACTR2 / RFU, PPP3R1 / Fold change vs veh, PPP3R1 / RFU, PIK3R1 / Fold change vs veh, PIK3R1 / RFU, HNRNPA1 / Fold change vs veh, HNRNPA1 / RFU, RNF170 / Fold change vs veh, RNF170 / RFU, ZNF28 / Fold change vs veh, ZNF28 / RFU, RNGTT / Fold change vs veh, RNGTT / RFU, OGT / Fold change vs veh, OGT / RFU, BRD1 / Fold change vs veh, BRD1 / RFU, MARS / Fold change vs veh, MARS / RFU, ZNF655 / Fold change vs veh, ZNF655 / RFU, FAHD1 / Fold change vs veh, FAHD1 / RFU, BDP1 / Fold change vs veh, BDP1 / RFU, LRRCC1 / Fold change vs veh, LRRCC1 / RFU, ARID1A / Fold change vs veh, ARID1A / RFU, ZNF146 / Fold change vs veh, ZNF146 / RFU, ZNF330 / Fold change vs veh, ZNF330 / RFU, GPN3 / Fold change vs veh, GPN3 / RFU, C9orf123 / Fold change vs veh, C9orf123 / RFU, N4BP2L2 / Fold change vs veh, N4BP2L2 / RFU, ARFIP1 / Fold change vs veh, ARFIP1 / RFU, FAM179B / Fold change vs veh, FAM179B / RFU, BCL10 / Fold change vs veh, BCL10 / RFU, UHRF1BP1L / Fold change vs veh, UHRF1BP1L / RFU, BET1 / Fold change vs veh, BET1 / RFU, CNOT2 / Fold change vs veh, CNOT2 / RFU, ZNF268 / Fold change vs veh, ZNF268 / Fold change vs veh, ZNF507 / RFU, DGCR2 / Fold change vs veh, DGCR2 / RFU, WDSUB1 / Fold change vs veh, WDSUB1 / Fold change vs veh, HSP90B1 /// MIR3652 / RFU, ADSS / Fold change vs veh, ADSS / RFU, GK / Fold change vs veh, GK / RFU, ZNF148 / Fold change vs veh, ZNF148 / RFU, TAF9 / Fold change vs veh, TAF9 / RFU, SLC1A5 / Fold change vs veh, SLC1A5 / RFU, SLMO2 / Fold change vs veh, SLMO2 / RFU, ABCC4 / Fold change vs veh, ABCC4 / RFU, LOC101060439 /// RAP1B / Fold change vs veh, LOC101060439 /// RAP1B / RFU, RFX7 / Fold change vs veh, RFX7 / RFU, GTPBP10 / Fold change vs veh, GTPBP10 / RFU, CNEP1R1 / Fold change vs veh, CNEP1R1 / RFU, BIVM-ERCC5 /// ERCC5 / Fold change vs veh, BIVM-ERCC5 /// ERCC5 / RFU, ILF3 / Fold change vs veh, ILF3 / RFU 11762660_at / Fold change /veh 11762660_at / RFU VCAN (11757783_s_at) / Fold change /veh VCAN (11757783_s_at) / RFU DDX43 (11728927_at) / Fold change /veh DDX43 (11728927_at) / RFU KRT8 (11758188_x_at) / Fold change /veh KRT8 (11758188_x_at) / RFU NKD1 (11759106_at) / Fold change /veh NKD1 (11759106_at) / RFU SRD5A1 (11742802_a_at) / Fold change /veh SRD5A1 (11742802_a_at) / RFU TPSAB1 /// TPSB2 (11721975_s_at) / Fold change /veh TPSAB1 /// TPSB2 (11721975_s_at) / RFU GSTM3 (11746129_a_at) / Fold change /veh GSTM3 (11746129_a_at) / RFU IL23R (11737362_x_at) / Fold change /veh IL23R (11737362_x_at) / RFU TMEM51 (11727254_a_at) / Fold change /veh TMEM51 (11727254_a_at) / RFU PIWIL2 (11732686_x_at) / Fold change /veh PIWIL2 (11732686_x_at) / RFU ORM1 (11744905_x_at) / Fold change /veh ORM1 (11744905_x_at) / RFU CCDC152 (11743942_at) / Fold change /veh CCDC152 (11743942_at) / RFU ECM1 (11717891_a_at) / Fold change /veh ECM1 (11717891_a_at) / RFU IL23R (11748794_a_at) / Fold change /veh IL23R (11748794_a_at) / RFU TNFAIP8L3 (11732012_x_at) / Fold change /veh TNFAIP8L3 (11732012_x_at) / RFU MBOAT4 (11741988_at) / Fold change /veh MBOAT4 (11741988_at) / RFU 11764193_at / Fold change /veh 11764193_at / RFU TMEM53 (11763286_at) / Fold change /veh TMEM53 (11763286_at) / RFU MAGEB2 (11727129_at) / Fold change /veh MAGEB2 (11727129_at) / RFU TMEM200A (11744735_a_at) / Fold change /veh TMEM200A (11744735_a_at) / RFU CCDC152 (11751479_a_at) / Fold change /veh CCDC152 (11751479_a_at) / RFU FAM211A (11726209_a_at) / Fold change /veh FAM211A (11726209_a_at) / RFU RGS16 (11746705_a_at) / Fold change /veh RGS16 (11746705_a_at) / RFU VCAN (11755009_s_at) / Fold change /veh VCAN (11755009_s_at) / RFU RHOB (11743442_s_at) / Fold change /veh RHOB (11743442_s_at) / RFU RGS16 (11720943_a_at) / Fold change /veh RGS16 (11720943_a_at) / RFU RGS16 (11720944_at) / Fold change /veh RGS16 (11720944_at) / RFU, VPS4B / Fold change vs veh, VPS4B / RFU, CREB1 / Fold change vs veh, CREB1 / RFU, DNAJC13 / Fold change vs veh, DNAJC13 / RFU, GNAQ / Fold change vs veh, GNAQ / RFU, CDK5R1 / Fold change vs veh, CDK5R1 / RFU, ZRANB3 / Fold change vs veh, ZRANB3 / RFU, CUL4A / Fold change vs veh, CUL4A / RFU, CCNY / Fold change vs veh, CCNY / RFU, UFL1 / Fold change vs veh, UFL1 / RFU, COG3 / Fold change vs veh, COG3 / RFU, DIAPH2 / Fold change vs veh, DIAPH2 / RFU, SKA2 / Fold change vs veh, SKA2 / RFU, AFF3 / Fold change vs veh, AFF3 / RFU, LMF1 / Fold change vs veh, LMF1 / RFU, IPO11 / Fold change vs veh, IPO11 / RFU, DFFB / Fold change vs veh, DFFB / RFU, FOXP1 / Fold change vs veh, FOXP1 / RFU, CARD8 / Fold change vs veh, CARD8 / RFU, STRN3 / Fold change vs veh, STRN3 / RFU, ADK / Fold change vs veh, ADK / RFU, RASSF2 / Fold change vs veh, RASSF2 / RFU, WIPF1 / Fold change vs veh, WIPF1 / RFU, LARP1B / Fold change vs veh, LARP1B / RFU, RASA1 / Fold change vs veh, RASA1 / RFU, RB1 / Fold change vs veh, RB1 / RFU, PPFIA1 / Fold change vs veh, PPFIA1 / RFU, MAT2A / Fold change vs veh, MAT2A / RFU, CCT5 / Fold change vs veh, CCT5 / RFU, WDR92 / Fold change vs veh, WDR92 / RFU, CUX1 / Fold change vs veh, CUX1 / RFU, TTC7A / Fold change vs veh, TTC7A / RFU, TMEM135 / Fold change vs veh, TMEM135 / RFU, DEPTOR / Fold change vs veh, DEPTOR / RFU, CPM / Fold change vs veh, CPM / RFU, DNAJB6 / Fold change vs veh, DNAJB6 / RFU, CACNA2D3 / Fold change vs veh, CACNA2D3 / RFU, DTX4 / Fold change vs veh, DTX4 / RFU, TFCP2 / Fold change vs veh, TFCP2 / RFU, GMCL1 /// GMCL1P1 / Fold change vs veh, GMCL1 /// GMCL1P1 / RFU, AEBP2 / Fold change vs veh, AEBP2 / RFU, SNHG1 /// SNORD22 /// SNORD25 /// SNORD26 /// SNORD27 /// SNORD28 /// SNORD29 /// SNORD31 / Fold change vs veh, SNHG1 /// SNORD22 /// SNORD25 /// SNORD26 /// SNORD27 /// SNORD28 /// SNORD29 /// SNORD31 / Fold change (Aza/veh), C12orf56 (ProbeSet 11735607_a_at) / Fold change (ACY-1035/veh), C12orf56 (ProbeSet 11735607_a_at) / Fold change (Aza/veh), FGFR1OP (ProbeSet 11751329_s_at) / Fold change (ACY-1035/veh), FGFR1OP (ProbeSet 11751329_s_at) / Fold change (Aza/veh), VPS36 (ProbeSet 11739960_a_at) / Fold change (ACY-1035/veh), VPS36 (ProbeSet 11739960_a_at) / RFU SYPL1 (11715823_x_at) / Fold change /veh SYPL1 (11715823_x_at) / RFU IGFBP7 (11715501_s_at) / Fold change /veh IGFBP7 (11715501_s_at) / RFU REEP3 (11722064_at) / Fold change /veh REEP3 (11722064_at) / RFU IGLL1 (11728026_x_at) / Fold change /veh IGLL1 (11728026_x_at): dose or concentration left out as unconfirmed
Conditions: MV-4-11 cells, 48 hours

SMILES: Nc1ccc(-c2cccs2)cc1NC(=O)c1ccc2c(c1)cc(C1CC1)n2CCN1CCOCC1 [ACY-1035]
- RFU CMKLR1 (11741424_a_at): 17.99 RFU
